Source: ChEMBL document CHEMBL3826966, “A chromatography-free isolation of rohitukine from leaves of Dysoxylum binectariferum: Evaluation for in vitro cytotoxicity, Cdk inhibition and physicochemical properties” (Bioorg Med Chem Lett, 2016)
≈ marks a conversion by molar mass, not a printed value.

Assays:
[1] = target: Serine/threonine-protein kinase pim-2 (Homo sapiens) (UniProt Q9P1W9); assay: Inhibition of human PIM2 (2 to 334 residues) assessed as remaining enzyme activity at 50 uM after 30 mins by 33P-ATP filter-binding assay
[2] = Cytotoxicity against human FR2 cells assessed as cell growth inhibition after 48 hrs by MTT assay; format: cell-based
[3] = target: Tyrosine-protein kinase ABL1 (Homo sapiens) (UniProt P00519); assay: Inhibition of human ABL (118 to 535 residues) assessed as remaining enzyme activity at 50 uM after 30 mins by 33P-ATP filter-binding assay
[4] = target: Serine/threonine-protein kinase pim-1 (Homo sapiens) (UniProt P11309); assay: Inhibition of human PIM1 (2 to 313 residues) assessed as remaining enzyme activity at 50 uM after 30 mins by 33P-ATP filter-binding assay
[5] = target: Glycogen synthase kinase-3 beta (Homo sapiens) (UniProt P49841); assay: Inhibition of human GSK3beta (2 to 420 residues) assessed as remaining enzyme activity at 50 uM after 30 mins by 33P-ATP filter-binding assay
[6] = target: Serine/threonine-protein kinase PAK 5 (Homo sapiens) (UniProt Q9P286); assay: Inhibition of human PAK5 (2 to 719 residues) assessed as remaining enzyme activity at 50 uM after 30 mins by 33P-ATP filter-binding assay
[7] = Thermodynamic equilibrium solubility in water at 120 ug/ml by HPLC analysis; format: physicochemical; conditions: read-out: Therm_solubility
[8] = target: Ephrin type-B receptor 3 (Homo sapiens) (UniProt P54753); assay: Inhibition of human EPHB3 (561 to 998 residues) assessed as remaining enzyme activity at 50 uM after 30 mins by 33P-ATP filter-binding assay
[9] = Cytotoxicity against human PC3 cells assessed as cell growth inhibition after 48 hrs by MTT assay; format: functional; conditions: PC-3, 48 h
HL-60 [10] = assay: Induction of apoptosis in human HL60 cells assessed as apoptotic cells at 10 uM (reference value: 1 %); format: functional
[11] = target: Serine/threonine-protein kinase WNK1 (Homo sapiens) (UniProt Q9H4A3); assay: Inhibition of human WNK1 (1 to 661 residues) assessed as remaining enzyme activity at 50 uM after 30 mins by 33P-ATP filter-binding assay
[12] = target: Rho-associated protein kinase 2 (Rattus norvegicus) (UniProt Q62868); assay: Inhibition of rat ROCK2 (2 to 543 residues) assessed as remaining enzyme activity at 50 uM after 30 mins by 33P-ATP filter-binding assay
[13] = target: Eukaryotic translation initiation factor 2-alpha kinase 3 (Homo sapiens) (UniProt Q9NZJ5); assay: Inhibition of human EIF2AK3 (536 to 1116 residues) assessed as remaining enzyme activity at 50 uM after 30 mins by 33P-ATP filter-binding assay
[14] = target: Mitogen-activated protein kinase 8 (Homo sapiens) (UniProt P45983); assay: Inhibition of human JNK1 (1 to 384 residues) assessed as remaining enzyme activity at 50 uM after 30 mins by 33P-ATP filter-binding assay
[15] = target: Serine/threonine-protein kinase 33 (Homo sapiens) (UniProt Q9BYT3); assay: Inhibition of human STK33 (1 to 514 residues) assessed as remaining enzyme activity at 50 uM after 30 mins by 33P-ATP filter-binding assay
[16] = target: Ribosomal protein S6 kinase alpha-1 (Homo sapiens) (UniProt Q15418); assay: Inhibition of human RSK1 (1 to 735 residues) assessed as remaining enzyme activity at 50 uM after 30 mins by 33P-ATP filter-binding assay
[17] = target: Casein kinase I isoform gamma-2 (Homo sapiens) (UniProt P78368); assay: Inhibition of human CK1gamma2 (1 to 415 residues) assessed as remaining enzyme activity at 50 uM after 30 mins by 33P-ATP filter-binding assay
HL-60 [18] = assay: Induction of apoptosis in human HL60 cells assessed as apoptotic cells at 5 uM (reference value: 1 %); format: functional
[19] = target: Serine/threonine-protein kinase Nek6 (Homo sapiens) (UniProt Q9HC98); assay: Inhibition of human NEK6 (8 to 313 residues) assessed as remaining enzyme activity at 50 uM after 30 mins by 33P-ATP filter-binding assay
[20] = target: Testis-specific serine/threonine-protein kinase 1 (Homo sapiens) (UniProt Q9BXA7); assay: Inhibition of human TSSK1 (1 to 367 residues) assessed as remaining enzyme activity at 50 uM after 30 mins by 33P-ATP filter-binding assay
[21] = target: Death-associated protein kinase 1 (Homo sapiens) (UniProt P53355); assay: Inhibition of human DAPK1 (1 to 363) assessed as remaining enzyme activity at 50 uM after 30 mins by 33P-ATP filter-binding assay
[22] = target: Serine/threonine-protein kinase Nek2 (Homo sapiens) (UniProt P51955); assay: Inhibition of human NEK2a (1 to 445 residues) assessed as remaining enzyme activity at 50 uM after 30 mins by 33P-ATP filter-binding assay
[23] = target: CDK9/cyclin T1 (Homo sapiens) (UniProt O60563+P50750); assay: Inhibition of human Cdk9/T1 using YSPTSPSYSPTSPSYSPTSPKKK peptide as substrate assessed as remaining enzyme activity at 50 uM after 30 mins by 33P-ATP filter-binding assay; format: protein-complex assay
[24] = target: Protein kinase C gamma type (Homo sapiens) (UniProt P05129); assay: Inhibition of human PKCgamma (1 to 697 residues) assessed as remaining enzyme activity at 50 uM after 30 mins by 33P-ATP filter-binding assay
[25] = Cytotoxicity against human PANC1 cells assessed as cell growth inhibition after 48 hrs by MTT assay; format: functional; conditions: PANC-1, 48 h
[26] = target: Discoidin domain-containing receptor 2 (Homo sapiens) (UniProt Q16832); assay: Inhibition of human DDR2 (467 to 854 residues) assessed as remaining enzyme activity at 50 uM after 30 mins by 33P-ATP filter-binding assay

For `Cc1cc(=O)c2c(O)cc(O)c([C@H]3CCN(C)C[C@H]3O)c2o1` [ROHITUKINE], the Activity [1] was 67%, the GI50 at 48 h [2] was over 50 µM and the Activity [3] was 87%. For the same compound, the Activity [4] was 27%, the Activity [5] was 66% and the Activity [6] was 87%. The solubility thermodynamic [7] was 10.2 mg/mL (≈ 33.6 mM), the Activity [8] was 82% and the GI50 [9] was 19 µM. The Activity (HL-60 [10]) was 10%, the Activity [11] was 100% and the Activity [12] was 64%. The Activity [13] was 82%, the Activity [14] was 96% and the Activity [15] was 54%. It also gave an Activity [16] of 31%, an Activity [17] of 92% and an Activity (HL-60 [18]) of 4%. It also gave an Activity [19] of 84%, an Activity [20] of 81% and an Activity [21] of 96%. It also gave an Activity [22] of 89%, an Activity [23] of 7% and an Activity [24] of 89%. It also gave a GI50 [25] of 22 µM and an Activity [26] of 79%.
